In assay [1] the test system is alpha-synuclein 5′-UTR IRE (SNCA 5′UTR). The experiment in a line: Primary screen/retest: ASYN 5′-UTR IRE-driven luciferase expression in H4 cells. The assay is classed as cell-based, human. The note with it: 48 h.
Assay [2] relates to alpha-synuclein. The experiment in a line: ELISA secondary screen for alpha-synuclein in SH-SY5Y cells. The assay is classed as cell-based, human. Set-up: Decrease syn(%) SHSY5Y cells: unit of the concentration uncertain. As to conditions: for Decrease αsyn(%) SHSY5Y cells: Table 2; for Decrease syn(%) SHSY5Y cells: Table 3. As for the experimental part:
FIG. 2 illustrates the results of ELISA experiments with compound 10 in SH-SY5Y cells. […]
FIG. 18 illustrates alpha Synuclein ELISA (Invitrogen) measurements from SHSY5 undifferentiated neurons treated with the indicated doses (triplicate wells) of compounds 2, 13, 11, 14, 15, and 16) for 48 h.
A human ASYN ELISA kit was utilized for all ELISA experiments (Invitrogen alpha-synuclein ELISA kit KHB0061) and the kit protocol was followed.
1) Plate SH-SY5Y […] cells (Corning, 3570) at 10,000 cells/well in 50 μL phenol red free media (phenol red-free DMEM with 4.5 g/L D-glucose [Lonza, 12-917F] supplemented with 10% FBS [Lonza, 14-503E], 200 μM L-glutamine [Lonza, 17-605E], 100 μM penstrep [Lonza, 17-602E] and 200 μg/mL geneticin [Invitrogen, 10131-027]).
2) Lid plates, then incubate cells for 24 hours at 37° C., 5% CO2, 95% humidity in a tissue culture incubator.
3) Pin 100 nL of each compound into the assay plates spanning a final concentration range from 100-0.006 μM.
4) Incubate plates for 48 h at 37° C., 5% CO2, 95% humidity. Following incubation, add 5 μL of Alamar blue solution per well and allow to incubate for 1 h at 37° C., 5% CO2, 95% humidity.
5) Read Alamar blue fluorescence using a Thermo Varioskan (570 nm excitation, 585 nm emission). Remove cell media and add 30 μL cell lysis solution with protease inhibitor (G Biosciences, 786-331; 10 μL/mL).
6) Place plates on a plate shaker for 1 h, before removing 20 μL lysate. Transfer cell lysates to 500 μL Eppendorf tubes and centrifuge (Eppendorf Centrifuge 5417C) for 10 min at 13,000 rpm.
7) Add 12 μL of the cell supernatant to 48 μL of standard diluent buffer (1:5). Add these samples to ELISA plate wells. Prepare ASYN standard curve wells as described in the kit manual.
8) Add 50 μL of anti-α-Synuclein (Detection Antibody) solution to each well, tapping the plate to mix. Cover the plate with a tape seal and incubate for 3 h at RT.
9) Wash wells four times with wash buffer using a multichannel pipette and add 100 μL of anti-rabbit IgG-HRP antibody solution to each well. Cover the plate and incubate for 30 min at RT. Wash wells four times with wash buffer and add 100 μL of Stabilized Chromogen to each well. Seal the plate and incubate in the dark at RT for 30 min.
10) Finally, add 100 μL of Stop Solution to each well, tapping the plate to mix, and read absorbance at 450 nm using an Envision plate reader (Perkin Elmer).
In general terms: An ELISA detects its analyte on a solid surface through an enzyme-linked reagent.

Assay [3] has as its system α-Synuclein. The experiment in a line: Decrease of α-syn in iPSC derived DA neurons. As to conditions: for Decrease αsyn(%) DA neurons: Table 2; for Decrease syn(%) DA neurons: Table 3. Set-up: Decrease syn(%) DA neurons: dose or concentration left out as unconfirmed. The assay is classed as cell-based, human.
The test system of assay [4] is α-Synuclein. The experiment in a line: Western blots of α-syn in iPSC derived DA neuron lysates. The assay is classed as cell-based, human. On the technique in general: Immunoblotting shows a protein as a band on a membrane.
Assay [5] has as its system α-Syn. The experiment in a line: Decrease of α-syn in Triple SNCA cortical neurons. The note with it: concentration not given; for Decrease αsyn(%) X3 SNCA neurons: Table 2.
Assay [6] has as its system SNCA IRE. The experiment in a line: Spinach fluorescent assay, SNCA IRE fluorescence sensor R7.
Assay [7] relates to PGL3 5′UTR. The experiment in a line: Secondary (counterscreen) luciferase assay in H4-C cells, IRE stem-loop removed. The assay is classed as cell-based, human. The note with it: versus SNCA 5′UTR. Background: The purpose of a counterscreen is to sort out artefacts and off-target activity.
The test system of assay [8] is PrP-5′UTR (prion protein IRE). The assay is classed as cell-based, human. The note with it: versus SNCA 5′UTR.
Assay [9] deals with α-Syn in tyrosine hydroxylase positive (TH+) neurons. The experiment in a line: Immunocytochemical quantitation of α-Syn in TH+ SNCA+ neurons. The assay is classed as cell-based. The note with it: low dose; decreased from 30 %. The source says:
FIG. 14 illustrates that immunocytochemical quantitation of effect of Compound 2 on α-Syn expression in tyrosine hydroxylase positive (TH+) α-synuclein positive (SNCA+) neurons. Panel A: antibody stains for TH and α-Syn. TH positive cells were counted. TH positive and SNCA positive cells were counted. The quantification was done by collecting 9 image fields/well with 3 wells/condition Panel B. The images were fed into Cell Profiler (Broad software).

Like-named read-outs stand apart in the source and are kept apart here.

Turning to `CN1CC[C@]2(C)c3cc(OC(=O)Nc4ccccc4)ccc3N(C)[C@H]12` [Posiphen, reference compound], the IC50 in assay [1] (Table 2, H4 cells, luciferase, read-out: IC50/μM (SNCA 5′UTR)) turned out to be 10 µM. In addition, in assay [2] (@10 μM), the “Decrease αsyn(%) SHSY5Y cells” value was 25-50 @10%. In addition, the “Decrease syn(%) SHSY5Y cells” value in assay [2] (@10 µM) is 25-50 @10M ^ %. Moreover, in assay [3] (concentration not given), the “Decrease αsyn(%) DA neurons” value stood at 25% and the “Decrease syn(%) DA neurons” value was determined as 25%. The “α-syn levels (Western blot)” value in assay [4] is listed as “reduced”. The “Decrease αsyn(%) X3 SNCA neurons” value in assay [5] was 5%. The “Decrease syn(%) X3 SNCA neuron” value in assay [5] (Table 3) is reported as 5%. Besides, in [6], the “binding to SNCA IRE (fluorescence of sensor R7)” value (“binding to SNCA IRE” below) was “no measurable effect or quenching effect”.
On to `COc1cccc(N2CCN(C(=O)c3ccc(C[S+]([O-])c4ccc(C)cc4)o3)CC2)c1` (centres unmarked) [Compound 11, 1-(3-Methoxyphenyl)-4-(5-{[(4-methylphenyl)sulfinyl]methyl}-2-furoyl)piperazine], for which the IC50 in assay [1] (Homo sapiens, Table 3, H4 cells, luciferase, read-out: IC50/M (SNCA 5′UTR)) is 0.1 µM. In addition, the “Selectivity PGL3 5′UTR” value in assay [7] (Table 3) is 58-fold. Further, the “Selectivity PrP-5′UTR” value in assay [8] (Table 3) is recorded as 126-fold. For the same compound, the “Decrease syn(%) SHSY5Y cells” value in assay [2] (@ 1 µM) is 14-28 @ 1M^ %. For the same compound, the “binding to SNCA IRE” value in [6] is “binds strongly”.
In the case of `COc1ccc(N(CC(=O)Nc2cc(Cl)ccc2OC)S(=O)(=O)c2c(C)noc2C)cc1` [Compound 2, N-(5-chloro-2-methoxyphenyl)-2-((N-(4-methoxyphenyl)-3,5-dimethylisoxazole)-4-sulfonamido)acetamide], the IC50 was determined as 5.8 µM in assay [1] (Homo sapiens, read-out: IC50/M (SNCA 5′UTR)) and 5.8 µM in assay [1] (Homo sapiens, read-out: IC50/μM (SNCA 5′UTR)). In addition, the “Selectivity PGL3 5′UTR” value in [7] (Table 2) and in assay [7] (Table 3) was 21-fold throughout. The “Selectivity PrP-5′UTR” value in assay [8] (Table 2) and in [8] (Table 3) was 18-fold in each case. For the same compound, the “Decrease αsyn(%) SHSY5Y cells” value in assay [2] (@ 0.1 μM) is 25-50 @ 0.1%. In assay [2] (@ 0.1 µM), the “Decrease syn(%) SHSY5Y cells” value is on record as 25-50 @ 0.1M %. In addition, the “Decrease αsyn(%) DA neurons” value in [3] (@ 1 μM) was 60 @ 1 μM %. Moreover, the “Decrease syn(%) DA neurons” value in assay [3] is reported as 60 @ 1M %. The “number of TH/SNCA positive cells” value in assay [9] is 18%. Further, in assay [4] (1 μM, 72 h, normalized to β-Actin), the “inhibition of α-Synuclein protein expression versus β-Syn, γ-Syn, Ferritin, APP and Prion proteins” value is “selectively inhibit”. Moreover, the “α-syn levels (Western blot)” value in [4] (10 μM and 1 μM compound, 72 h, β-actin standardized, N=3) is “reduced”. Besides, the “Decrease αsyn(%) X3 SNCA neurons” value in [5] stood at 50%. Besides, the “binding to SNCA IRE” value in assay [6] was “significant increases in binding”.
